Values after ≈ are worked out from the molar mass of the structure shown.
Experiments:
[1] = tested on: S. cerevisiae; details: yeast S. cerevisiae, microdilution; cited from earlier work
[2] = tested on: MDA-MB-231 cells; assay: Sulforhodamine B (SRB) cell viability assay, MDA-MB-231; assay type: cell-based, human
Experimental: (§1) The cells were allowed to adhere overnight, from 12 h to 18 h, and then treated with increasing concentrations of each compound, C9, A36, and A42 (0.125 μM, 0.25 μM, 0.5 μM, 1 μM, 2.5 μM, and 5 μM), in their respective culture mediums for 48 h. In addition to a negative control that consisted only of cells and growth medium, a negative control containing the highest concentration of the solvent in which the compound was dissolved (DMSO 0.1%) was also used. The SRB assay was performed according to Marques et al.. The IC50 values were obtained using GraphPad Prism version 8.2.1 through the application of a sigmoidal dose–response nonlinear regression, after logarithmic transformation. The selectivity index was determined by dividing the IC50 value of the non-neoplastic BJ-5ta cell line by the IC50 value of the cancer cell lines (IC50 BJ-5ta/IC50 cancer cell line); furthermore, for the CRC model, a second selectivity index was also determined using the non-neoplastic NCM460 cell line (IC50 NCM460/IC50 CRC cell line). According to the results of the selectivity index, the cell line with the highest selectivity value for each of the models, CRC and breast, was selected for subsequent characterization.
(§2) Three CRC-derived cell lines, SW480 (KRAS^G12V), HCT116 (KRAS^G13D), and RKO (BRAF^V600E), harboring somatic mutations on KRAS or BRAF, and two breast-cancer-derived cell lines, MDA-MB-231 (basal like) and MCF7 (luminal A subtype), together with two non-neoplastic cell lines, NCM460 (normal colon mucosal epithelial cell line) and BJ-5ta (normal foreskin fibroblast cell line), were used to study the activity and selectivity of the three new benzo[a]phenoxazine compounds, C9, A36, and A42. All cell lines were treated with a range of drug concentrations (0.125 μM, 0.25 μM, 0.5 μM, 1 μM, 2.5 μM, and 5 μM) for 48 h, and the effect on cell viability was assessed using a sulforhodamine B assay (SRB) (Figure 2). The results were used to determine the IC50 value of each compound for all the cell lines (Table 1). In addition, the selectivity index was determined using the BJ-5ta cell line as a reference, as well as the NCM460 cell line for the CRC model (Table 1).

[3] = tested on: MCF7 cells; assay: Sulforhodamine B (SRB) cell viability assay, MCF7; assay type: cell-based; details: Homo sapiens, breast cancer cell line, 48 h, read-out: IC50 (μM) ± SD, MCF7
Experimental: as §1
as §2, with “The results were used to determine the IC50 value of each compound for all the cell lines (Table 1).” left out

[4] = tested on: RKO cells; assay: Lysosomal membrane permeabilization (acridine orange, flow cytometry), RKO; assay type: cell-based, human; details: 4 × IC50, 48 h
Experimental: (§3) RKO and MCF7 lysosomal membrane permeabilization (LMP) was evaluated through flow cytometry using the Acridine Orange (A.O) probe. RKO and MCF7 cells were seeded in 12-well plates at a density of 1 × 10^5 cells/mL. After 24 h, the cells were treated with the compounds C9, A36, and A42 at 2 × IC50 and 4 × IC50 concentrations or 0.1% DMSO (vehicle). As a control, untreated cells were employed. Following a 48 h period, the adherent and floating cells were collected and subjected to a 15-min dark incubation period at 37 °C with 1 μM A.O. After that, the samples were examined by flow cytometry using the PC5.5 channel.
(§4) Following the information obtained with the lead compound and considering the microscopic observations made with these new compounds, we next investigated whether their toxicity was also associated with lysosome targeting. To this end, we evaluated the induction of lysosomal membrane permeabilization (LMP) by flow cytometry, using acridine orange (AO) as probe. This probe allows for an assessment of permeabilization, as its fluorescence decreases upon the release of lysosomal protons. […] The cells that presented decreased AO fluorescence were considered to have permeabilized lysosomes.

[5] = tested on: MCF7 cells; assay: ROS levels (DHE, flow cytometry), MCF7; assay type: cell-based, human; details: MCF7, 2 × IC50 and 4 × IC50, 48 h
Experimental: (§5) The RKO and MCF7 ROS levels were evaluated through flow cytometry using the dihydroethidium (DHE) probe. RKO and MCF7 cells were seeded in 12-well plates at a density of 1 × 10^5 cells/mL. After 24 h, the cells were treated with the compounds C9, A36, and A42 at 2 × IC50 and 4 × IC50 concentrations or 0.1% DMSO (vehicle). As a control, untreated cells were used. The cells were collected after 48 h of treatment, washed with PBS 1×, and stained for 30 min at 37 °C in the dark using 0.5 μM DHE. The DHE mean fluorescence intensity was analyzed by flow cytometry using the PE-A channel.
(§6) Since ROS generation is reported to precede LMP and cell death, and in view of reports showing that some compounds of this family increase intracellular ROS levels under certain circumstances, we also investigated whether C9, A36, and A42 had any effects in this regard.

[6] = tested on: MCF7 cells; assay: Wound healing assay, MCF7; assay type: cell-based, human; details: MCF7, IC50 and 2 × IC50, 12 h (controls approximately 12.5%)
Experimental: RKO and MCF7 cells were seeded in 12-well plates at densities of 5 × 10^5 cells/mL and 4.5 × 10^5 cells/mL, respectively. After 24 h, a wound was created by scraping the cell layer using a 1 mm pipette tip. The cells were treated with C9, A36, and A42 at IC50 and 2 × IC50 concentrations or 0.1% DMSO (vehicle). Untreated cells were used as controls. The wound regions were photographed at 0 and 12 h, and migration was assessed using the Image J software. The relative migration was calculated in relation to the untreated controls.

[7] = tested on: HCT116 cells; assay: Sulforhodamine B (SRB) cell viability assay, HCT116; assay type: cell-based; details: Homo sapiens, HCT-116, CRC cell line, 48 h, read-out: IC50 (μM) ± SD, HCT116
Experimental: as §1
as §2, with “The results were used to determine the IC50 value of each compound for all the cell lines (Table 1).” left out

[8] = tested on: NCM460 cells; assay: Sulforhodamine B (SRB) cell viability assay, NCM460; assay type: cell-based; details: Homo sapiens, non-neoplastic cell line, 48 h, read-out: IC50 (μM) ± SD, NCM460
Experimental: as §1
as §2, with “The results were used to determine the IC50 value of each compound for all the cell lines (Table 1).” left out

[9] = tested on: MCF7 cells; assay: Lysosomal membrane permeabilization (acridine orange, flow cytometry), MCF7; assay type: cell-based, human; details: MCF7, 4 × IC50, 48 h
Experimental: as §3, §4

[10] = tested on: RKO cells; assay: ROS levels (DHE, flow cytometry), RKO; assay type: cell-based, human; details: 2 × IC50 and 4 × IC50, 48 h
Experimental: as §5, §6

IC50 ([2]; Homo sapiens, MDA-MB-231, breast cancer cell line, 48 h, SRB, read-out: IC50 (μM) ± SD, MDA-MB-231): 1.19 ± 0.05 µM
IC50 [3]: 0.84 ± 0.06 µM
IC50 [7]: 1.64 ± 0.09 µM
Compound: CCCNc1cc2oc3cc(=NCC)c(C)cc-3nc2c2ccccc12 [C9]
MIC (minimum inhibitory concentration) [1]: 6.25 µM (≈ 2.16 µg/mL)
Selectivity Index Cell Line IC50/BJ-5ta IC50 ([2]; MDA-MB-231 versus BJ-5ta): 2.14
Percentage of cells with LMP (permeabilized lysosomes) [4]: more than 80%
ROS levels (fluorescence mean of DHE) [5]: higher intensity
Effect on cell migration (wound closure) [6]: more pronounced effect
IC50 [8]: 1.12 ± 0.13 µM
Percentage of cells with LMP (permeabilized lysosomes) [9]: more than 80%
ROS levels (fluorescence mean of DHE) [10]: higher intensity
